What all share (details): incubation time: 72 h
In assay [1] the test system is CAL-148. Nature of the assay: normalised viability (% of control), CellTiter-Blue; higher = more viable cells (about 100 = DMSO control). The protocol:
(§1)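 DSRT, CellTiter-Blue viability, 72 h incubation. Signal is normalised to DMSO and benzethonium chloride controls. Value is the normalised response at dose 6.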

In assay [2] the test system is HDQ-P1. Described as above. As for the experimental part:
as §1

The test system of assay [3] is CAL-51. The description is as above. The protocol:
as §1

Assay [4] has as its system DU-4475. Described as above. As for the experimental part:
as §1

Assay [5] concerns MDA-MB-453. The description is as above. The protocol:
as §1

The test system of assay [6] is CAL-85-1. The description is as above. The protocol:
as §1

For assay [7], the system named is CAL-120. Nature of the assay: normalised response (% of control), CellTox Green; higher = less cell death (100 = DMSO, 0 = benzethonium chloride kill control). In short, it runs like this: (§2)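 Breast cancer cell lines (20 µl suspension) were seeded into 384-well plates holding compound at 5 concentrations in 10-fold steps over a compound-specific 10,000-fold range, then incubated 72 h. CellTox Green fluorescence (485/520 nm) was read first, then CellTiter-Glo luminescence after 10 min at room temperature. Each plate was normalised to 0.1 % DMSO (100) and a positive kill control (0). Each value is the normalised signal at a single concentration of the series.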

The test system of assay [8] is CAL-148. Described as above. In short, it runs like this:
as §2

In assay [9] the test system is MDA-MB-468. Described as above. In a few lines:
as §2

Assay [10] relates to MDA-MB-231. Described as above. In a few lines: as §2
In assay [11] the test system is HCC1599. The description is as above. In a few lines: as §2
The test system of assay [12] is HDQ-P1. The assay is described as above. In a few lines: as §2
In assay [13] the test system is CAL-51. The description is as above. In short, it runs like this: as §2
The test system of assay [14] is MDA-MB-436. The assay is described as above. In short, it runs like this: as §2
Assay [15] concerns MCF-10A. The description is as above. In a few lines: as §2
Assay [16] relates to BT-549. The assay is described as above. In short, it runs like this:
as §2

For assay [17], the system named is HCC1143. The assay is described as above. In short, it runs like this:
as §2

Assay [18] concerns DU-4475. The assay is described as above. In short, it runs like this: as §2
The subject of assay [19] is MDA-MB-453. Described as above. In a few lines:
as §2

Assay [20] relates to HCC1937. Described as above. In short, it runs like this: as §2
The subject of assay [21] is BT-474. The description is as above. In a few lines: as §2
Assay [22] deals with MFM-223. Described as above. In a few lines: as §2
Assay [23] relates to Hs578T. The assay is described as above. In short, it runs like this:
as §2

Assay [24] has as its system CAL-85-1. The assay is described as above. In a few lines:
as §2

Assay [25] concerns CAL-120. Nature of the assay: normalised response (% of control), CellTiter-Glo; higher = more viable cells (100 = DMSO, 0 = benzethonium chloride kill control). As for the experimental part:
(§3)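 DSRT, 72 h incubation, CellTox Green / CellTiter-Glo readout. Signal is normalised to DMSO and benzethonium chloride controls. Value is the normalised response at the highest dose.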
A general note: Cellular ATP, detected with luciferase, serves as a proxy for viable cell number.

Assay [26] concerns CAL-148. The assay is described as above. As for the experimental part: as §3
For assay [27], the system named is MDA-MB-468. Described as above. As for the experimental part: as §3
Assay [28] concerns MDA-MB-231. The description is as above. The protocol: as §3
In assay [29] the test system is HCC1599. The description is as above. As for the experimental part: as §3
Assay [30] deals with HDQ-P1. The assay is described as above. The protocol:
as §3

Assay [31] concerns CAL-51. The description is as above. As for the experimental part:
as §3

The subject of assay [32] is MDA-MB-436. The description is as above. As for the experimental part: as §3
Assay [33] deals with MCF-10A. The description is as above. The protocol:
as §3

Assay [34] relates to BT-549. The description is as above. As for the experimental part: as §3
In assay [35] the test system is HCC1143. The assay is described as above. As for the experimental part: as §3
In another assay the test system is SK-BR-3. The description is as above. As for the experimental part:
as §3

The test system of assay [36] is DU-4475. The assay is described as above. The protocol:
as §3

Assay [37] concerns MDA-MB-453. Described as above. As for the experimental part:
as §3

The subject of assay [38] is HCC1937. The assay is described as above. As for the experimental part:
as §3

The test system of assay [39] is BT-474. The description is as above. As for the experimental part:
as §3

Assay [40] has as its system MFM-223. The description is as above. As for the experimental part:
as §3

Assay [41] relates to Hs578T. Described as above. The protocol: as §3
The test system of assay [42] is CAL-85-1. Described as above. The protocol:
as §3

`Cc1ccc(-n2nc(C(C)(C)C)cc2NC(=O)Nc2ccc(OCCN3CCOCC3)c3ccccc23)cc1` [Doramapimod] (300 nM): the normalised viability in the assay with CAL-148 [1] was found to be 91.3%; with HDQ-P1 [2], 38%; in the assay on CAL-51 [3], 107%; in the assay on DU-4475 [4], 96.3%; in the assay on MDA-MB-453 [5], 105%; in the assay on CAL-85-1 [6], 81.1%.

Take `C#Cc1cccc(Nc2ncnc3cc(OCCOC)c(OCCOC)cc23)c1` [Erlotinib] (300 nM): the normalised viability amounted to 86.1% with CAL-148 [1]; 63.8% in the assay on HDQ-P1 [2]; 96.4% in the assay on CAL-51 [3]; 114% in the assay with DU-4475 [4]; 86.1% with MDA-MB-453 [5]; 73.3% in the assay with CAL-85-1 [6].

On to `COc1cc([C@@H]2c3cc4c(cc3[C@@H](O[C@@H]3O[C@@H]5CO[C@@H](C)O[C@H]5[C@H](O)[C@H]3O)[C@H]3COC(=O)[C@H]23)OCO4)cc(OC)c1O` [Etoposide] (300 nM), for which the normalised viability with CAL-148 [1] is 59.4%; in the assay with HDQ-P1 [2] it was 77.3%; with CAL-51 [3], 59%; in the assay with DU-4475 [4], 45.6%; with MDA-MB-453 [5], 104%; in the assay with CAL-85-1 [6] it was 98.9%.

For `C[C@]12CC[C@@H]3c4ccc(O)cc4C[C@@H](CCCCCCCCC[S+]([O-])CCCC(F)(F)C(F)(F)F)[C@H]3[C@@H]1CC[C@@H]2O` (some centres undefined) [Fulvestrant] (300 nM), the normalised viability with CAL-148 [1] is 102%; in the assay on HDQ-P1 [2], 74.7%; in the assay on CAL-51 [3], 111%; in the assay on DU-4475 [4], 92.7%; in the assay with MDA-MB-453 [5], 98.8%; in the assay on CAL-85-1 [6] it was 87.8%.

Take `O=P1(NCCCl)OCCCN1CCCl` (centres undefined) [Ifosfamide] (300 nM): the normalised viability in the assay with CAL-148 [1] was found to be 109%; in the assay with HDQ-P1 [2], 85.1%; with CAL-51 [3], 108%; in the assay on DU-4475 [4], 78.1%; with MDA-MB-453 [5], 110%; in the assay with CAL-85-1 [6], 97.1%.

For the molecule `CC(C)Cn1cnc2c(N)nc3ccccc3c21` [Imiquimod] (300 nM), the normalised viability in the assay on CAL-148 [1] was 96.5%; in the assay with HDQ-P1 [2] it was 75.3%; in the assay with CAL-51 [3], 97.5%; in the assay on DU-4475 [4], 80.5%; in the assay on MDA-MB-453 [5] it was 103%; with CAL-85-1 [6], 102%.

For the molecule `CC1(C)NC(=O)N(c2ccc([N+](=O)[O-])c(C(F)(F)F)c2)C1=O` [Nilutamide] (300 nM), the normalised viability was determined as 98% in the assay on CAL-148 [1]; 125% with HDQ-P1 [2]; 102% with CAL-51 [3]; 106% with DU-4475 [4]; 113% in the assay on MDA-MB-453 [5]; 104% in the assay with CAL-85-1 [6].

With `O=C(CCCCCCC(=O)Nc1ccc([C@H]2O[C@@H](CSc3nc(-c4ccccc4)c(-c4ccccc4)o3)C[C@@H](c3ccc(CO)cc3)O2)cc1)NO` [Tubacin] (10000 nM), the normalised response with CAL-120 [7] is 75.1%; in the assay on CAL-148 [8] it was 81.1%; in the assay on MDA-MB-468 [9] it was 98.2%; in the assay with MDA-MB-231 [10], -21.5%; with HCC1599 [11], 95.2%; with HDQ-P1 [12] it was 102%. Further, the normalised response worked out at 53.8% with CAL-51 [13]; 89.9% in the assay with MDA-MB-436 [14]; 110% in the assay with MCF-10A [15]; 71.7% in the assay with BT-549 [16]; 27.7% in the assay on HCC1143 [17]; 92.1% with DU-4475 [18]. The normalised response was 39% with MDA-MB-453 [19]; 54.5% with HCC1937 [20]; 73.7% in the assay on BT-474 [21]; 81.7% in the assay with MFM-223 [22]; 85.2% with Hs578T [23]; -3.19% in the assay with CAL-85-1 [24]. Besides, the normalised response in the assay with CAL-120 [25] is 51.8%; with CAL-148 [26], 73.5%; with MDA-MB-468 [27], 17.2%; with MDA-MB-231 [28], 8.62%; with HCC1599 [29] it was 13.7%; with HDQ-P1 [30] it was 68.6%. Further, the normalised response with CAL-51 [31] worked out at 35.4%; in the assay on MDA-MB-436 [32], 57.5%; with MCF-10A [33], 52.4%; in the assay with BT-549 [34], 42%; in the assay with HCC1143 [35] it was 37.1%; in the assay with SK-BR-3, 45.4%. Besides, the normalised response was 70.7% in the assay with DU-4475 [36]; 6.07% in the assay on MDA-MB-453 [37]; 32.3% in the assay on HCC1937 [38]; 13.9% in the assay on BT-474 [39]; 38.2% in the assay on MFM-223 [40]; 51.4% with Hs578T [41]. Besides, the normalised response with CAL-85-1 [42] was 18.4%.
